The values that follow come from patent publication US20190008973A1, “INTRALIPID-IODINE FOR IMAGING” (priority 2017, published 2019).

Counter-ions that a name gives are not always drawn. Like-named read-outs stand apart in the source and are kept apart here.

The test system of series [1] is lipid-dependent mitochondrial respiration (carnitine exchange). The note with it: cited from earlier work.
The test system of series [2] is propofol-mediated hypotension. Particulars: cited from earlier work.
Series [3] relates to acetylcholinesterase (AChE) / neuronal degeneration. The note with it: cited from earlier work; for serum AChE: rat, in vivo.
The subject of series [4] is spinal cord ischemia and reperfusion. Particulars: intravenous; cited from earlier work.
In another series the test system is hippocampal slices. The note with it: cited from earlier work.
Series [5] deals with myocardial ischemia-reperfusion injury. The note with it: cited from earlier work.
Series [6] relates to post ischaemic stunned myocardium. Particulars: dog, in vivo; cited from earlier work.
In the next series the test system is PLA(2) and PLC. The note with it: rat, in vivo; cited from earlier work.
In a further series the test system is free fatty acid efflux. The note with it: cited from earlier work; for I/R-evoked FFA efflux: 20-min ischemia, 40 min reperfusion.
Another series deals with post operative delirium. The experiment in a line: Lipid Emulsion Treatment of post operative delirium/POCD, 4 case reports. Type of series: in vivo, human. Particulars: case 1, 60 min.
A further series relates to brachial plexus. Particulars: 150 μg clonidine or 200 μg epinephrine with 0.25% bupivacaine; cited from earlier work.
The test system of series [7] is fallopian tube and adnexal tissue. The note with it: cited from earlier work.
The target of series [8] is T1, N-methyl-D-aspartate receptor channels (Mus musculus, UniProt P35438).
T1 construct: cultured cortical neurons from the mouse; endogenous in cells; host or cells: cultured mouse cortical neurons
Particulars: cited from earlier work.

For series [9], the system named is ischemia-reperfusion (IR) injury. The note with it: cited from earlier work.
Series [10] has as its system soft tissue anesthesia (STA). Particulars: in vivo; cited from earlier work.
A further series concerns the target T2, mitochondrial ATPase (Homo sapiens, UniProt P06576+P25705).
T2 construct: mitochondrial ATPase prepared by the chloroform extraction method; from tissue; host or cells: mitochondria
Particulars: cited from earlier work; for kind of inhibition: reciprocal plots.

The next series concerns total spinal anesthesia. Particulars: in vivo; cited from earlier work.
For another series, the system named is traumatic brain injury. The note with it: cited from earlier work.

T2 sequence (P25705 44-553): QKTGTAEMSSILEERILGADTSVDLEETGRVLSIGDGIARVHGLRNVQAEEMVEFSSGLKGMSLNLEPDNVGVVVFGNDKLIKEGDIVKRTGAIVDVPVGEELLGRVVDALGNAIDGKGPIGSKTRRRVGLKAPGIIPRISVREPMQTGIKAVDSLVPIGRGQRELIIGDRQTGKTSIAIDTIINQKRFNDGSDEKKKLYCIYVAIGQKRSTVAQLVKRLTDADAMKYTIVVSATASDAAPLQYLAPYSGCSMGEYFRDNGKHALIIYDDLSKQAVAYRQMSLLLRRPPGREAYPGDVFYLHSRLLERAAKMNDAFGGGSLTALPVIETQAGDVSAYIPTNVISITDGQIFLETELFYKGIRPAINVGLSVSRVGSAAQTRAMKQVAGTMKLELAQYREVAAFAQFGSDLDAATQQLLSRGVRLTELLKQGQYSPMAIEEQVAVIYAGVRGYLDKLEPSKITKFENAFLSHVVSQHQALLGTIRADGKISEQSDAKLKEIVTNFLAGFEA
T2 sequence (P06576 48-529): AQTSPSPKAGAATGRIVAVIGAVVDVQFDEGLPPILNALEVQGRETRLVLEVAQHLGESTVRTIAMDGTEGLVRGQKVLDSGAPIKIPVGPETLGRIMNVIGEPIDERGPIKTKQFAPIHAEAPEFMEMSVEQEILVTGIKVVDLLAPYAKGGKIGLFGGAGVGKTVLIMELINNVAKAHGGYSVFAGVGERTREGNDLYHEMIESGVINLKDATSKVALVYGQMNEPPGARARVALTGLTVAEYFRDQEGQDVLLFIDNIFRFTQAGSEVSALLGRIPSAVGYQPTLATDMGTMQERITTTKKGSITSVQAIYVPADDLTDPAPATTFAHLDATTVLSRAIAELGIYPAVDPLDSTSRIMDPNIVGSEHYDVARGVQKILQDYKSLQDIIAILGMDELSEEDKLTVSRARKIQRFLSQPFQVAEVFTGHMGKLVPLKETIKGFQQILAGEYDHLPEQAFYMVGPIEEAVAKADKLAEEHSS
T2 sequence (P36542 26-298 partner): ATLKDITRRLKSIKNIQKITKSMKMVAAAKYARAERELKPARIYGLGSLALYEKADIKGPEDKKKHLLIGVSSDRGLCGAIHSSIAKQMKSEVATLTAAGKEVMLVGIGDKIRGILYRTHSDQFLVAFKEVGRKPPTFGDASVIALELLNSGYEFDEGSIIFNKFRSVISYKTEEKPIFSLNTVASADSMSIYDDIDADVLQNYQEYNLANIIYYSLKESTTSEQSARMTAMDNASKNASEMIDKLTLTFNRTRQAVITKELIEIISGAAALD
T2 sequence (P30049 23-168 partner): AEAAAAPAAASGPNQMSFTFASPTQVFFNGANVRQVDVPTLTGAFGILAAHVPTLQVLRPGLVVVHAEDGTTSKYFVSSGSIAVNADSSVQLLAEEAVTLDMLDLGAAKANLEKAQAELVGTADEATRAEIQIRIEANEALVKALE
T2 sequence (P56381 2-51 partner limits assumed): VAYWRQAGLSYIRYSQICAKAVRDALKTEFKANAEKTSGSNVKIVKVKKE

Consider `CCOC(=O)[C@@H]1C2CCC(C[C@@H]1OC(=O)c1ccccc1)N2C` (stereo partly drawn) [cocaethylene], for which the lipid-dependent mitochondrial respiration result in [1] was “inhibited”.
20% BSA: the “effect on propofol induced cortical burst suppression” value in [2] (EEG) is listed as −2+/−1%.
For `CCOP(=S)(OCC)Oc1nc(Cl)c(Cl)cc1Cl` [chlorpyriphos, Chlorpyriphos], the “serum AChE” value in series [3] is on record as “inhibited AChE”.
For the compound `CCCC(C)C1(CC)C(=O)NC(=S)NC1=O` (stereo not drawn) [thiopental], the injured animals in [4] is reported as 100%.
For the compound `CCCCC/C=C\C/C=C\C/C=C\C/C=C\CCCC(=O)O` [Arachidonic acid, 5,8,11,14-eicosateraenoic acid], the “protection from glutamate and H(2)O(2) injury” value with hippocampal slices (1-10 microM) is listed as “dose dependently protected”.
For `FC(F)OC(Cl)C(F)(F)F` (stereo not drawn) [IS, isoflurane], in [5] (3 h after reperfusion, group C 676+/−82), the plasma lactate dehydrogenase is on record as 456+/−58 U/L. In series [5] (3 h after reperfusion, group C 2373+/−529), the plasma creatine kinase is 1725+/−230 U/L. Also, in series [5] (group C 39%+/−6%), the “myocardial infarct size 3 h after reperfusion” value was 20%+/−8%.
With `N[C@H](C(=O)O)c1ccc(O)cc1` [Oxfenicine, oxfenicine], the “effect of pretreatment on benefit of Intralipid” value in [6] was “completely abolished”.
Take `CN1[C@H]2CC[C@@H]1[C@@H](C(=O)O)[C@@H](OC(=O)c1ccccc1)C2` [benzoylecgonine]: the lipid-dependent mitochondrial respiration entry in series [1] is listed as “not”.
Turning to 4-bromophenylacyl bromide [BPB], the “FFA efflux during ischemia-reperfusion injury” value in the series on PLA(2) and PLC is “significantly inhibited FFA efflux”.
With `C[C@@H]1C[C@@H]([C@H](O)CC2CC(=O)NC(=O)C2)C(=O)[C@@H](C)C1` [CHX, cycloheximide], the “effect on neuroprotection by arachidonic acid” value in the series with hippocampal slices (BADGE 100 microM, CHX 30 microM) is “completely abolished”.
Consider `O=C1CN(/N=C/c2ccc(-c3ccc([N+](=O)[O-])cc3)o2)C(O)=N1` [Dantrolene], for which the “I/R-evoked FFA efflux” value in the series on free fatty acid efflux is “significantly inhibited I/R-evoked release of docosahexaenoic, arachidonic, linoleic and oleic acids”.
As for `COc1ccc2c(c1)CC[C@@H]1[C@@H]2CC[C@]2(C)[C@@H](NCCCCCCN3C(=O)C=CC3=O)CC[C@@H]12` [U73122], in the series on PLA(2) and PLC, the “FFA efflux during ischemia-reperfusion injury” value is reported as “had no observed effect”.
As for `O=C(CCCN1CCC(O)(c2ccc(Cl)cc2)CC1)c1ccc(F)cc1` [Haloperidol], in the series on post operative delirium, the “agitation after conventional sedatives” value was “had not improved”.
For the compound `Clc1cccc(Cl)c1N=C1NCCN1` [clonidine, clonidine hydrochloride], the duration of block in the series on brachial plexus is 994.2 ± 34.2 min.
Consider `CC(=O)N(CC(O)CO)c1c(I)c(C(=O)NCCO)c(I)c(C(=O)NCC(O)CO)c1I` (stereo not drawn) [Ioxilan, ioxilan], for which the “pathologic response in tube or peritoneal cavity” value (from here on “pathologic response”) in series [7] (histology) is “no pathologic response”.
With `CNC(=O)c1c(I)c(NC(C)=O)c(I)c(C(=O)O)c1I.CNC[C@H](O)[C@@H](O)[C@H](O)[C@H](O)CO` [Iothalamate meglumine 60%, iothalamate meglumine], the “pathologic response” value in [7] (rabbit, in vivo) is “mild inflammatory infiltrate, mucosal edema, giant cell reaction, and periovarian adhesions”.
Take `O=C1O/C(=C/Br)CCC1c1cccc2ccccc12` (stereo not drawn) [BEL, bromoenol lactone]: in the series with PLA(2) and PLC, the “FFA efflux during ischemia-reperfusion injury” value was “had only minimal effects on FFA efflux”.
Regarding `O=C(/C=C/c1ccc(O)c(O)c1)OCCc1ccccc1` [CAPE, caffeic acid phenethyl ester], in [3] (histologic examination), the neuronal degeneration result is “significant effect on protection of neuronal degeneration”. Besides, in series [3], the “serum AChE” value is on record as “inhibited AChE”.
As to `CN1CCN(CCCN2c3ccccc3Sc3ccc(C(F)(F)F)cc32)CC1` [trifluoperazine], the “I/R-evoked FFA efflux” value in the series on free fatty acid efflux is “very effective in suppressing ischemia/reperfusion evoked release of all six FFAs”.
Regarding `CNC1(c2ccccc2Cl)CCCCC1=O` (stereo not drawn) [ketamine], the “effect on emulsion-induced currents” value in [8] is “inhibited”.
Take `Cn1cc(C2=C(c3ccc(Cl)cc3Cl)C(=O)NC2=O)c2ccccc21` [SB216763]: the “cardioprotection in sham-operated hearts exposed to IR” value in [9] (1% ILP 15 min) is given as “conferred cardioprotection”. Further, the “cardioprotection in hypertrophied myocardium” value in series [9] is reported as “failed to exert cardioprotection”.
In the case of `Cc1ncc2n1-c1ccc(Cl)cc1C(c1ccccc1F)=NC2` [midazolam], the “agitation after conventional sedatives” value with post operative delirium was “had not improved”.
Regarding `C/C=C(/C)C(=O)O[C@H]1C(C)=C2[C@H]([C@@H]1OC(=O)CCCCCCC)[C@@](C)(OC(C)=O)C[C@H](OC(=O)CCC)[C@@]1(O)[C@H]2OC(=O)[C@@]1(C)O` [Thapsigargin], the “FFA efflux in the absence of ischemia” value in the series on free fatty acid efflux (rat, in vivo) was “elicited significant elevations in the efflux of myristic, arachidonic and linoleic acids”.
Consider `Cc1ccc(N(CC2=NCCN2)c2cccc(O)c2)cc1` [PM (OraVerse), phentolamine mesylate], for which, in series [10], the “duration of residual STA” value is recorded as “significantly decrease the duration of residual STA” and the “safety outcomes in school-based dental clinic” value was “improve safety outcomes”.
On to Ryanodine, for which the “I/R-evoked FFA efflux” value in the series with free fatty acid efflux is “significantly enhanced ischemia/reperfusion-elicited efflux of linoleic acid”.
Turning to `CN(C)CCCN1c2ccccc2Sc2ccc(Cl)cc21` [chlorpromazine], the kind of inhibition entry on mitochondrial ATPase is on record as “non-competitive”.
Regarding `CNC(=O)c1c(I)c(NC(C)=O)c(I)c(C(=O)O)c1I.CNC[C@H](O)[C@@H](O)[C@H](O)[C@H](O)CO` [iothalamate meglumine 30%, iothalamate meglumine], the “pathologic response” value in series [7] (rabbit, in vivo) is “no pathologic response”.
Regarding `CCN(CC)CC(=O)Nc1c(C)cccc1C` [lidocaine], at mitochondrial ATPase, the kind of inhibition result is “non-competitive”. Moreover, in the series with total spinal anesthesia, the “further time to consciousness” value is 80 min and the “time to spontaneous respiration” value is 45 min.
Regarding `CC(C)(c1ccc(OCC2CO2)cc1)c1ccc(OCC2CO2)cc1` (stereo not drawn) [BADGE, bisphenol A diglycidyl ether], the “effect on neuroprotection by arachidonic acid” value in the series on hippocampal slices is reported as “completely abolished”.
Take `C[N+](C)(C)CC[N+]1(C)Cc2c(Cl)c(Cl)c(Cl)c(Cl)c2C1` [chlorisondamine]: the “lowering of MAP” value in series [2] (2.5 mg/kg IV) was 56+/−3%.
Consider `C1CCC[C@H]2CCCN3CC[C@@H](CCCCCC[C@@H]4CCCN5CC[C@@H](CC1)O[C@@H]45)O[C@@H]23` [Xestospongin C], for which, in the series with free fatty acid efflux, the “I/R-evoked FFA efflux” value was “failed to affect I/R-evoked FFA efflux”.
On to `CCCCOc1cc(C(=O)NCCN(CC)CC)c2ccccc2n1` [dibucaine], for which the kind of inhibition result on mitochondrial ATPase is “non-competitive”.
For conjugated linoleic acids [CLA], the “latency to find the hidden MWM platform” value in the series on traumatic brain injury (CCI-injured, saline 30.7±5.5) is 66.8 ± 10.6 s. For the same compound, the “latency to find the hidden Morris Water Maze platform” value with traumatic brain injury (Sham, saline 8.8±1.7) is 40.3 ± 13.0 s.
For ecgonine, the lipid-dependent mitochondrial respiration result in series [1] was “not”.
As to DL-AP5, in series [8], the “effect on emulsion-induced currents” value was “inhibited”.
As to `CCOC(=O)c1ccc(N)cc1` [benzocaine], the “inhibition of the enzyme” value on mitochondrial ATPase is given as “inhibits the enzyme at all pH values”.
For picrotoxin, in series [8], the “effect on emulsion-induced currents” value is “not affected”.
